Converted amounts (≈) assume the structure as drawn. Where two headings read alike, the source gives them in different places.
What was measured:
[1] = tested on: E. coli (MDR) b clinical isolate; test: MIC, agar dilution method, E. coli MDR b; assay type: cell-based; settings: for MIC (antibiotic susceptibility) E. coli MDRb: Table S3, unpublished data of microbiology unit, Beni Suef general hospital, same procedure; for MIC: Escherichia coli, range 1-64 µg/mL, 37 °C, 18-20 h, read-out: MIC E. coli (MDR) b
Description: (§1) The selected top-scoring hits were evaluated for their antibacterial effect against two clinical multidrug-resistant strains of enterotoxigenic E. coli. Both isolates were isolated as clinical samples from Beni Suef general hospital, Beni Suef, Egypt. […] MRSA (ATCC 25529) and VRSA (clinical isolate from Beni Suef general hospital, Beni Suef, Egypt) were also used to further evaluate the tested compounds against resistant Gram-positive bacteria.
(§2) Minimum inhibitory concentrations for the test compounds were analyzed following the standard agar dilution method using Meuller-Hinton (MH) agar medium against different Gram-negative and positive bacteria (Table 1). Firstly, the tested compounds were prepared as a stock suspension with a 10 mg/mL final concentration in DMSO. Subsequently, the prepared stocks were diluted in 10 mL molten soft agar (0.5% agar) to obtain a concentration range from 1–64 µg/mL, then mixed and poured over a surface of MH agar (2% agar) plates and left for solidification. Finally, exponentially grown (O.D 600 nm of 0.6) test strains (Table 1) were diluted to a final density of 10^6 CFU/mL in MH broth and spotted (1 µL/spot) over the soft agar. Then, the plates were left for drying and incubated at 37 °C for 18–20 h. Controls were conducted using DMSO seeded soft agar. At the end of the experiment, the MIC for each compound was identified as the minimum concentration that inhibited the growth of the tested strain. The experiments were carried out in triplicates.

[2] = tested on: E. coli (MDR) a clinical isolate; test: MIC, agar dilution method, E. coli MDR a; assay type: cell-based; settings: for MIC (antibiotic susceptibility) E. coli MDRa: Table S3, unpublished data of microbiology unit, Beni Suef general hospital, same procedure; for MIC: Escherichia coli
Description: as §1, §2

[3] = target: T1, E. coli gyrase B43 domain (Gyr-B) (Escherichia coli, UniProt P0AES6); test: biochemical; assay type: biochemical
T1 construct: 20 μL of the enzyme (E. coli gyrase B43 domain; 20 μM concentration); purchased Inspiralis ATPG001
Description: (§3) Ddl-B and Gyr-B activity assays were performed according to the manufacturer protocols (ProFoldin, Catalogue No. DDA100KE, and Inspiralis, Catalogue No. ATPG001, UK).
Gyr-B assay measured the capability of the tested compounds to hinder the ATPase activity of Gyr-B subunits. This assay links the hydrolysis of ATP by gyrase to the conversion of NADH to NAD^+, which can be measured by a change in absorbance at 340 nm. The assay reactions and detection were performed using a 96-well plate. […] First, the assay mix was prepared by mixing 20 μL of the assay buffer (50 mM Tris.HCl (pH 7.5), 1 mM EDTA, 5 mM magnesium chloride, 5 mM DTT, 10% (w/v) glycerol), 1 μL phosphoenolpyruvate (80 mM in water), 1.5 μL pyruvate kinase/lactate dehydrogenase stock, 2 μL NADH (20 mM in water), and 58.8 μL water. Thereafter, 63.3 μL of assay mix and 10 μL of the test compound solution and 20 μL of the enzyme (E. coli gyrase B43 domain; 20 μM concentration) were added into the wells and mixed by pipetting. After incubation for 10 min at 25 °C, 6.7 uL of ATP (30 mM) was added to each well. After 60 min of incubation at 25 °C, the absorbance was measured at 340 nm.

VRSA (clinical isolate) = test: MIC, agar dilution method, VRSA; assay type: cell-based, S. aureus; settings: range 1-64 µg/mL, 37 °C, 18-20 h; for MIC: Staphylococcus aureus, VRSA, read-out: MIC VRSA
Description: as §1, §2

[4] = Cellular toxicity against normal fibroblasts WI-38 (MTT); assay type: cell-based; settings: human
Description: All selected top-scoring compounds were tested for their cellular toxicity against human fibroblasts cell line (WI-38). Cell line (WI-38; ATCC: CCL-75) was maintained in earth RPMI 1640 medium comprising 10% heat-inactivated fetal bovine serum (FBS) and grown at 37 °C and 5% CO2. The cell line was seeded on 96-well cell culture plates (2 × 10^4 cells/well). Cells were stimulated with tested compounds at different concentrations (from 1 to 50 µM) overnight in triplicates. Doxorubicin was used as a positive control. Cell viability was assessed by MTT assay. To normalize cell viability values, each plate included a triplicate of untreated cells considered as 100% viability, and a triplicate of cells treated with a cytotoxic mixture (200 ng/mL TNF, 200 ng/mL CD95L, 200 ng/mL TRAIL, 5 μg/mL CHX, 1% (w/v) sodium azide […]) considered as 0% viability. All other viability values were normalized according to the averages of these triplicates and analyzed by the Graph Pad Prism 5 software (La Jolla, CA, USA).

MRSA (ATCC 25529) = test: MIC, agar dilution method, MRSA; assay type: cell-based, S. aureus; settings: Staphylococcus aureus; range 1-64 µg/mL, 37 °C, 18-20 h; read-out: MIC MRSA
Description: as §1, §2

[5] = target: T2, E. coli DAla:D-Ala ligase (Ddl-B) (Escherichia coli, UniProt P07862); test: Ddl-B enzymatic activity assay (inorganic phosphate, absorbance 650 nm); assay type: biochemical
T2 construct: purchased ProFoldin DDA100KE
Description: as §3
Ddl-B enzymatic activity assay is based on measuring the inorganic phosphate generated from the D-Alanine: D-Alanine ligation reaction. The inorganic phosphate is detected by absorbance at 650 nm. The assay reactions and detection were performed by using a 96-well plate. Different concentrations of the test compounds and the reference inhibitor D-cycloserine were prepared in DMSO (from 10 µM to 1000 µM). […] Thereafter, 33 μL of 10× enzyme substrate was prepared by mixing 3.3 μL of 100× enzyme substrate with 29.7 μL of water. Finally, 27 μL of the premix with 3 μL of the 10× enzyme substrate in each well were mixed. After 60 min of incubation at 37 °C, 45 μL of MPA3000 dye was added into the 30 μL of the reaction mixture. After 5 min of incubation, absorbance was measured at 650 nm.

[6] = MDR isolates a and b not distinguished, read-out: MIC E. coli
[7] = range 1-64 µg/mL, 37 °C, 18-20 h, read-out: MIC E. coli (MDR) a
[8] = WI-38 normal fibroblast cells, WI-38, 1 to 50 µM overnight, MTT, read-out: CC50
[9] = 10-1000 µM tested, read-out: IC50 Ddl-B

MIC (antibiotic susceptibility) E. coli MDRb [1] [µg/mL] | MIC (antibiotic susceptibility) E. coli MDRa [2] [µg/mL] | Structure (SMILES) | MIC (VRSA (clinical isolate)) [µg/mL] | MIC [1] [µg/mL] | MIC [2, 7] [µg/mL] | MIC (MRSA (ATCC 25529)) [µg/mL] | also measured
> 64 | > 64 | CC1(C)S[C@@H]2[C@H](NC(=O)[C@H](N)c3ccccc3)C(=O)N2[C@H]1C(=O)O [Ampicillin, reference compound] | – | – | – | – | –
– | – | O=C1c2ccccc2C(=O)c2c(O)ccc(O)c21 [Quinizarin] | 16 (≈ 66.6 µM) | 64 (≈ 266 µM) | 64 (≈ 266 µM) | 64 (≈ 266 µM) | Gyr-B inhibition in words [3]: moderately inhibited; IC50 [3]: 38.8 ± 2.3 µM; Ki [3]: 17.9 ± 1.4 µM; MIC [2, 6]: 64 µg/mL (≈ 266 µM); CC50 [4, 8]: 20.1 ± 0.56 µM; Ddl-B inhibition in words [5]: moderately inhibited; IC50 [5, 9]: 515 ± 8.3 µM; Ki ([5]; read-out: Ki Ddl-B): 230 ± 8.3 µM
16 (≈ 21.4 µM) | – | CC[C@H]1OC(=O)[C@H](C)[C@@H](O[C@H]2C[C@@](C)(OC)[C@@H](O)[C@H](C)O2)[C@H](C)[C@@H](O[C@@H]2O[C@H](C)C[C@H](N(C)C)[C@H]2O)[C@](C)(O)C[C@@H](C)CN(C)[C@H](C)[C@@H](O)[C@]1(C)O [Azithromycin, reference compound] | – | – | – | – | –
64 (≈ 141 µM) | 32 (≈ 70.3 µM) | CO/N=C(\C(=O)N[C@@H]1C(=O)N2C(C(=O)O)=C(COC(C)=O)CS[C@H]12)c1csc(N)n1 [Cefotaxime, reference compound] | – | – | – | – | –
– | 16 (≈ 44.3 µM) | C[C@H]1COc2c(N3CCN(C)CC3)c(F)cc3c(=O)c(C(=O)O)cn1c23 [Levofloxacin, reference compound] | – | – | – | – | –
– | – | COc1cccc2c1C(=O)c1c(O)c3c(c(O)c1C2=O)C[C@@](O)(C(=O)CO)C[C@@H]3O[C@H]1C[C@H](N)[C@H](O)[C@H](C)O1 [Doxorubicin, reference compound] | – | – | – | – | CC50 [4]: 26.2 ± 0.61 µM
– | – | O=C(O)c1cc(O)c2c(c1)C(=O)c1cccc(O)c1C2=O [Rhein] | 8 (≈ 28.1 µM) | 2 (≈ 7.04 µM) | 8 (≈ 28.1 µM) | > 64 | IC50 [3]: 11.5 ± 1.2 µM; Ki [3]: 7.33 ± 0.9 µM; CC50 ([4]; WI-38, 1 to 50 µM overnight, MTT, read-out: CC50): > 50 µM; Ddl-B inhibition in words [5]: more potent; IC50 [5]: 281 ± 6.1 µM; Ki [5]: 133 ± 2.3 µM
– | – | O=C1c2cccc(O)c2C(=O)c2cccc(O)c21 [Anthrarufin] | > 64 | 2 (≈ 8.33 µM) | 2 (≈ 8.33 µM) | 2 (≈ 8.33 µM) | Gyr-B inhibition in words [3]: moderate activity; IC50 [3]: 6.93 ± 1.6 µM; Ki [3]: 4.1 ± 1.6 µM; MIC VRSA (VRSA (clinical isolate)): >64 µg/mL; MIC [2, 6]: 2 µg/mL (≈ 8.33 µM); CC50 [4, 8]: 29.7 ± 0.76 µM; Ddl-B inhibition in words [5]: comparable to the reference inhibitor D-cycloserine; IC50 [5, 9]: 350 ± 7.4 µM; Ki ([5]; read-out: Ki Ddl-B): 345 ± 10.1 µM
8 (≈ 13.7 µM) | – | NCC[C@H](O)C(=O)N[C@@H]1C[C@H](N)[C@@H](O[C@H]2O[C@H](CN)[C@@H](O)[C@H](O)[C@H]2O)[C@H](O)[C@H]1O[C@H]1O[C@H](CO)[C@@H](O)[C@H](N)[C@H]1O [Amikacin, reference compound] | – | – | – | – | –
– | – | N[C@@H]1CON=C1O [D-cycloserine, reference compound] | 32 (≈ 313 µM) | 16 (≈ 157 µM) | 16 (≈ 157 µM) | 32 (≈ 313 µM) | IC50 [5, 9]: 362 µM; Ki ([5]; read-out: Ki Ddl-B): 118 ± 11.7 µM
– | – | CO[C@@H]1[C@@H](OC(N)=O)[C@@H](O)[C@H](Oc2ccc3c(O)c(NC(=O)c4ccc(O)c(CC=C(C)C)c4)c(=O)oc3c2C)OC1(C)C [Novobiocin, reference compound] | 1 (≈ 1.63 µM) | 64 (≈ 104 µM) | 64 (≈ 104 µM) | 1 (≈ 1.63 µM) | –
16 (≈ 29.3 µM) | 32 (≈ 58.5 µM) | CC(C)(O/N=C(\C(=O)N[C@@H]1C(=O)N2C(C(=O)[O-])=C(C[n+]3ccccc3)CS[C@H]12)c1csc(N)n1)C(=O)O [Ceftazidime, reference compound] | – | – | – | – | –
